Measurements reported in patent US5912230A, “Anti-fungal and anti-bacterial histatin-based peptides” (priority 1998, dated 1999).
Like-named read-outs stand apart in the source and are kept apart here. Where no end group is shown, it is not given here.

Assays:
[1] = tested on: Porphyromonas gingivalis strain A7A1-28; assay: microdilution bacteriostatic assay (P. gingivalis growth inhibition); type: cell-based; conditions: for P. gingivalis: % increase in time to reach mid logphase growth (0.2 OD): 2 mM dose
Experimental: (a) The bacteria used in one investigation, Porphyromonas gingivalis strain A7A1-28, is a typical key pathogenic organism associated with destructive periodontal diseases. The bacteria were multiply subcultured in Enriched Todd Hewitt broth (ETHB, Difco Lab., Detroit, Mich.). Microorganisms were stored in the same broths containing 20% and 50% glycerol, at -20° C. and -70° C., respectively. These served as stock cultures from which all preparations originated.
Working stock cultures were maintained by weekly transfer to Brain Heart Infusion Anaerobic Sheep Blood Agar plates (BHIA, Becton Dickinson and Co., Cockeysville, Md.), and Trypticase Soy Anaerobic Sheep Blood Agar plates (TSA, Becton Dickinson and Co., Cockeysville, Md.). Plates were incubated for 3 to 4 days under strictly anaerobic conditions. For the bacteriostatic assay, bacteria were collected from plates, inoculated into the aforementioned broth and grown at 37° C., under strictly anaerobic conditions for 24 to 48 hours.
A modification of the typical microdilution assay (Rotilie et al., 1975) for the determination of minimal inhibitory concentration (MIC) of antimicrobial agents was utilized to investigate the bacteriostatic activity of the peptides. A standardized bacterial inoculum (P. gingivalis) was exposed to serially diluted antimicrobial peptides in an enriched broth medium that was suitable for the growth of anaerobic bacteria. The test was adapted for use in the 96-well microtiter plates. […] The modification introduced here was based on the spectrophotometric reading of the microtiter plate after incubation.
Microorganisms from cultures maintained in the aforementioned plates were inoculated into 5 ml of the above-mentioned broths and cultured overnight at 37° C. under strictly anaerobic conditions with continuous agitation on a minishaker (IKA-Labortechnik, Staufen i. Br., Germany). The bacteria were grown until reaching the late log phase and were then suspended in the same broths to an optical density (O.D.) of 0.1 at 560 nm. The peptides were diluted in 0.01M phosphate buffered saline (PBS), pH 7. Forty μl aliquots of peptide dilutions were added in each well of a U-bottom microtiter plate (Costar, Cambridge, Mass.) to give final concentrations of 2000, 1000, 500 and 250 μM. Twenty μl of bacterial inoculum was added to all the wells. Finally, 100 μl of the suitable broth were added to each well. The optical density of the wells of the microtiter plate was determined using a microplate reader set at 550 nm and the plate was then incubated under strictly anaerobic conditions for 24 hours. Controls were made by replacing the peptide dilutions with PBS alone. After the incubation, the mixtures in each well were mixed manually to resuspend sedimented bacteria and the plate was read again. The experiments were conducted twice every time. The biologic activity was calculated according to the formula:
100-[[(Fin ODexp-In ODexp)/(Fin ODctr-In ODctr)]×100]
In addition, the % increase in time to reach midlog phase growth was calculated.
The data presentation represent the means (±SEM) of at least 2 separate experiments.

Clostripain [2] = molecular target: T1, Clostripain (Hathewaya histolytica, UniProt P09870); assay: clostripain assay (BAPNA hydrolysis); type: biochemical, Clostridium histolyticum
T1 construct: purchased Sigma Chemical Corp., St. Louis, Mo
Experimental: (§1) Clostripain from Clostridium histolyticum (Sigma Chemical Corp., St. Louis, Mo.) was dissolved in deionized water to a concentration of 1 mg/mL (300 units/mg) and activated with the addition of 10 mmol/L DTT. To measure its hydrolytic activity, clostripain (6 units) was added to […] Hepes buffer, pH 7.5, containing 80 gmol/L BAPNA (benzoyl-arginine-p-nitroanilide), together with 5.6 μmol/L of histatin peptide inhibitor. As controls, assays were performed in the absence of any histatin peptide inhibitor. The activity was monitored continuously at 405 nm using a Molecular Devices VMax microtitre plate reader. The activities were determined from the maximum rates of substrate hydrolysis. Assays were done in duplicate, and the means normalized to the controls.

Clostripain [3] = molecular target: T2, Clostripain (Hathewaya histolytica, UniProt P09870); assay: clostripain assay (BAPNA hydrolysis); type: biochemical, Clostridium histolyticum; remark: listed apart in the source
T2 construct: purchased Sigma Chemical Corp., St. Louis, Mo
T2 sequence (P09870 whole entry, looked up): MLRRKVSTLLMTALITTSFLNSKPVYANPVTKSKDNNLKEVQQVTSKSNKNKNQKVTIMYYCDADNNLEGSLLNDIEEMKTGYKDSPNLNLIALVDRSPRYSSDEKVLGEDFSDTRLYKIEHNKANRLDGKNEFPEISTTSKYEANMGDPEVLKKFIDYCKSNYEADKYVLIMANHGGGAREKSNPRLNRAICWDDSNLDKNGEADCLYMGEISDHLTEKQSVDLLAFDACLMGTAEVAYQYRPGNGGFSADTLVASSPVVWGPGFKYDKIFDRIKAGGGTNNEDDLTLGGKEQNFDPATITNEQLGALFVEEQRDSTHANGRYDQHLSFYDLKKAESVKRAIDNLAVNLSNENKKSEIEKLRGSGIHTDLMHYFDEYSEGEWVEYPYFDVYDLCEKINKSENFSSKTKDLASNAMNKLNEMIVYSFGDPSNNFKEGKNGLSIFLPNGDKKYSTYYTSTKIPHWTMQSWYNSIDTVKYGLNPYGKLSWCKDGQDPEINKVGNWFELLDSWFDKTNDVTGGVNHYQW
Experimental: as §1

[4] = read-out: Clostripain: IC50 (μM) for inhibition of Clostripain

Substance | P. gingivalis growth inhibition, in words [1] | IC50 (Clostripain [2]) [µM] | clostripain inhibition, in words (Clostripain [2]) | clostripain inhibition, in words (Clostripain [3]) | P. gingivalis: % increase in time to reach mid logphase growth (0.2 OD) [1] [%] | IC50 (Clostripain [2]; [4]) [µM]
AKRHHGYKRK [peptide 119] | P. gingivalis growth inhibition | > 50 | clostripain inhibition effects | – | – | –
AKRHHGYKRKF [peptide 118] | P. gingivalis growth inhibition | 45 | clostripain inhibition effects | – | – | –
peptide 117: subpeptide of peptide 113 (SEQ ID NO: 19) (KRHHGYKRKFH) | P. gingivalis growth inhibition | – | – | clostripain inhibition effects | – | –
AKRHHGYKR [peptide 120] | P. gingivalis growth inhibition | > 50 | clostripain inhibition effects | – | – | –
AKRHHGYKRKFH [peptide 113] | P. gingivalis growth inhibition | – | clostripain inhibition effects | – | 34.95 | 25
KRHHGYKRKF [peptide 129] | P. gingivalis growth inhibition | – | clostripain inhibition effects | – | 15.4 | 19
His 11: histatin 11 (SEQ ID NO: 11), subpeptide of peptide 113 (KRHHGYKR) | P. gingivalis growth inhibition | – | – | clostripain inhibition effects | – | –
